The record followed here is PMC11361989, “A simple HPLC–MS/MS method for the determination of polymyxin B in human plasma and its application in the pharmacokinetic study in elderly patients infected with multidrug-resistant Gram-negative bacteria” (Frontiers in Pharmacology, 2024).

The data set in a line: Stability of working solutions of PB1 and PB2. Type of data set: physicochemical. As to the method:
All the above solutions were stored at −70°C.

On to polymyxin B2 [PB2], for which the “Stability of working solutions” value is “remained stable after storage at −70 °C for up to 7 days but not beyond 10 days”.
